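Protocol summary: plate cells (96-well), add compound at 5 concentrations, incubate 48 h, interpolate endpoints linearly. TGI is the concentration that stops growth completely.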
Assays:
Test in all cases: DTP human tumour cell line panel, 48 h
786-0 renal = test system: 786-0 renal
A498 renal = test system: A498 renal
A549 NSCLC = test system: A549 NSCLC
ACHN renal = test system: ACHN renal
BT-549 breast = test system: BT-549 breast
CAKI-1 renal = test system: CAKI-1 renal
CCRF-CEM leukemia = test system: CCRF-CEM leukemia
COLO 205 colon = test system: COLO 205 colon
DU-145 prostate = test system: DU-145 prostate
EKVX NSCLC = test system: EKVX NSCLC
HCC-2998 colon = test system: HCC-2998 colon
HCT-116 colon = test system: HCT-116 colon
HCT-15 colon = test system: HCT-15 colon
HL-60(TB) leukemia = test system: HL-60(TB) leukemia
HOP-62 NSCLC = test system: HOP-62 NSCLC
HOP-92 NSCLC = test system: HOP-92 NSCLC
HS 578T breast = test system: HS 578T breast
HT29 colon = test system: HT29 colon
IGROV1 ovarian = test system: IGROV1 ovarian
K-562 leukemia = test system: K-562 leukemia
KM12 colon = test system: KM12 colon
LOX IMVI melanoma = test system: LOX IMVI melanoma
M14 melanoma = test system: M14 melanoma
MALME-3M melanoma = test system: MALME-3M melanoma
MCF7 breast = test system: MCF7 breast
MDA-MB-231 breast = test system: MDA-MB-231 breast
MDA-MB-435 = test system: MDA-MB-435
MDA-N = test system: MDA-N
MOLT-4 leukemia = test system: MOLT-4 leukemia
NCI-H226 lung = test system: NCI-H226 lung
NCI-H23 lung = test system: NCI-H23 lung
NCI-H460 lung = test system: NCI-H460 lung
NCI-H522 lung = test system: NCI-H522 lung
NCI/ADR-RES ovarian = test system: NCI/ADR-RES ovarian
OVCAR-3 ovarian = test system: OVCAR-3 ovarian
OVCAR-4 ovarian = test system: OVCAR-4 ovarian
OVCAR-5 ovarian = test system: OVCAR-5 ovarian
OVCAR-8 ovarian = test system: OVCAR-8 ovarian
PC-3 prostate = test system: PC-3 prostate
RXF 393 renal = test system: RXF 393 renal
SF-268 CNS = test system: SF-268 CNS
SF-295 CNS = test system: SF-295 CNS
SF-539 CNS = test system: SF-539 CNS
SK-MEL-2 melanoma = test system: SK-MEL-2 melanoma
SK-MEL-28 melanoma = test system: SK-MEL-28 melanoma
SK-MEL-5 melanoma = test system: SK-MEL-5 melanoma
SK-OV-3 ovarian = test system: SK-OV-3 ovarian
SN12C renal = test system: SN12C renal
SNB-19 CNS = test system: SNB-19 CNS
SNB-75 CNS = test system: SNB-75 CNS
SW-620 colon = test system: SW-620 colon
T-47D breast = test system: T-47D breast
TK-10 renal = test system: TK-10 renal
U251 CNS = test system: U251 CNS
UACC-257 melanoma = test system: UACC-257 melanoma
UACC-62 melanoma = test system: UACC-62 melanoma
UO-31 renal = test system: UO-31 renal
RPMI-8226 leukemia = test system: RPMI-8226 leukemia

COc1cc2oc(-c3ccc4c(c3)OCO4)c(OC)c(=O)c2c(OC)c1OC
TGI (786-0 renal): > 100 µM | TGI (A498 renal): > 100 µM | TGI (A549 NSCLC): > 100 µM | TGI (ACHN renal): > 100 µM | TGI (BT-549 breast): > 100 µM | TGI (CAKI-1 renal): > 100 µM | TGI (CCRF-CEM leukemia): > 100 µM | TGI (COLO 205 colon): > 100 µM | TGI (DU-145 prostate): > 100 µM | TGI (EKVX NSCLC): > 100 µM | TGI (HCC-2998 colon): > 100 µM | TGI (HCT-116 colon): > 100 µM | TGI (HCT-15 colon): > 100 µM | TGI (HL-60(TB) leukemia): > 100 µM | TGI (HOP-62 NSCLC): 93 µM | TGI (HOP-92 NSCLC): 39.8 µM | TGI (HS 578T breast): > 100 µM | TGI (HT29 colon): > 100 µM | TGI (IGROV1 ovarian): > 100 µM | TGI (K-562 leukemia): > 100 µM | TGI (KM12 colon): > 100 µM | TGI (LOX IMVI melanoma): > 100 µM | TGI (M14 melanoma): > 100 µM | TGI (MALME-3M melanoma): > 100 µM | TGI (MCF7 breast): > 100 µM | TGI (MDA-MB-231 breast): > 100 µM | TGI (MDA-MB-435): > 100 µM | TGI (MDA-N): > 100 µM | TGI (MOLT-4 leukemia): > 100 µM | TGI (NCI-H226 lung): > 100 µM | TGI (NCI-H23 lung): > 100 µM | TGI (NCI-H460 lung): > 100 µM | TGI (NCI-H522 lung): > 100 µM | TGI (NCI/ADR-RES ovarian): > 100 µM | TGI (OVCAR-3 ovarian): > 100 µM | TGI (OVCAR-4 ovarian): > 100 µM | TGI (OVCAR-5 ovarian): > 100 µM | TGI (OVCAR-8 ovarian): > 100 µM | TGI (PC-3 prostate): > 100 µM | TGI (RXF 393 renal): > 100 µM | TGI (SF-268 CNS): 99.5 µM | TGI (SF-295 CNS): > 100 µM | TGI (SF-539 CNS): > 100 µM | TGI (SK-MEL-2 melanoma): > 100 µM | TGI (SK-MEL-28 melanoma): > 100 µM | TGI (SK-MEL-5 melanoma): > 100 µM | TGI (SK-OV-3 ovarian): > 100 µM | TGI (SN12C renal): > 100 µM | TGI (SNB-19 CNS): > 100 µM | TGI (SNB-75 CNS): 94 µM | TGI (SW-620 colon): > 100 µM | TGI (T-47D breast): > 100 µM | TGI (TK-10 renal): > 100 µM | TGI (U251 CNS): > 100 µM | TGI (UACC-257 melanoma): > 100 µM | TGI (UACC-62 melanoma): > 100 µM | TGI (UO-31 renal): > 100 µM

CC(C)(C)c1ccc2c(c1)C(=O)c1ccccc1C2=O
TGI (786-0 renal): > 100 µM | TGI (A498 renal): > 100 µM | TGI (A549 NSCLC): > 100 µM | TGI (ACHN renal): > 100 µM | TGI (BT-549 breast): > 100 µM | TGI (CAKI-1 renal): > 100 µM | TGI (CCRF-CEM leukemia): > 100 µM | TGI (COLO 205 colon): 60.3 µM | TGI (DU-145 prostate): > 100 µM | TGI (EKVX NSCLC): 75.9 µM | TGI (HCT-116 colon): > 100 µM | TGI (HCT-15 colon): > 100 µM | TGI (HL-60(TB) leukemia): > 100 µM | TGI (HOP-62 NSCLC): > 100 µM | TGI (HOP-92 NSCLC): 85 µM | TGI (HS 578T breast): > 100 µM | TGI (HT29 colon): 68.8 µM | TGI (IGROV1 ovarian): > 100 µM | TGI (K-562 leukemia): > 100 µM | TGI (KM12 colon): > 100 µM | TGI (LOX IMVI melanoma): > 100 µM | TGI (M14 melanoma): > 100 µM | TGI (MALME-3M melanoma): > 100 µM | TGI (MCF7 breast): 66.3 µM | TGI (MDA-MB-231 breast): > 100 µM | TGI (MDA-MB-435): > 100 µM | TGI (MDA-N): > 100 µM | TGI (MOLT-4 leukemia): 65.8 µM | TGI (NCI-H226 lung): 92.6 µM | TGI (NCI-H23 lung): > 100 µM | TGI (NCI-H460 lung): > 100 µM | TGI (NCI/ADR-RES ovarian): > 100 µM | TGI (OVCAR-3 ovarian): > 100 µM | TGI (OVCAR-4 ovarian): > 100 µM | TGI (OVCAR-5 ovarian): > 100 µM | TGI (OVCAR-8 ovarian): > 100 µM | TGI (PC-3 prostate): > 100 µM | TGI (RPMI-8226 leukemia): > 100 µM | TGI (RXF 393 renal): 80 µM | TGI (SF-268 CNS): > 100 µM | TGI (SF-295 CNS): > 100 µM | TGI (SF-539 CNS): > 100 µM | TGI (SK-MEL-28 melanoma): > 100 µM | TGI (SK-MEL-5 melanoma): 40.2 µM | TGI (SK-OV-3 ovarian): > 100 µM | TGI (SN12C renal): > 100 µM | TGI (SNB-19 CNS): > 100 µM | TGI (SNB-75 CNS): 87 µM | TGI (SW-620 colon): > 100 µM | TGI (T-47D breast): > 100 µM | TGI (TK-10 renal): > 100 µM | TGI (U251 CNS): > 100 µM | TGI (UACC-257 melanoma): > 100 µM | TGI (UACC-62 melanoma): > 100 µM | TGI (UO-31 renal): > 100 µM

Source: PubChem BioAssay (NCI)
